Results taken from patent publication US20180105492A1, “COMPOUNDS DERIVED FROM 3-ALKYLAMINE-1H-INDOLYL ACRYLATE AND THEIR USE IN THE TREATMENT OF NEURODEGENERATIVE DISEASES” (FUNDACION PARA LA INVESTIGACION BIOMEDICA DEL HOSPITAL …, priority 2014, published 2018).

Key:
[1] = system: Nrf2 transcription factor (Nrf2-ARE); assay: Nrf2-ARE induction, luciferase activity in AREc32 (MCF7 cells stably transfected with ARE-LUC); assay type: cell-based; settings: Homo sapiens, 24 h, basal = 1, read-out: Relative Luciferase activity (response versus basal)
Procedure: For the study of Nrf2 transcription factor, the cellular line AREC32 was used, which is characterized for being stably transfected with the reporter gene of Luciferase linked to the ARE sequence. In the presence electrophilic compounds or oxidative stress, Nrf2 factor binds to ARE sequences, activating luciferase expression and producing a proportional quantity of luciferase. The AREc32 cells were cultured in DMEM media with glutamax, supplemented with 10% fetal bovine serum (FBS), 1% penicillin-streptomycin and 1.6% geneticine (G418) (obtained from GIBCO, Madrid, Spain). Cells were cultured in 75 cm flasks with 11 mL of specific media, incubated at 37° C. and 5% of CO2. Cells were passed every 4-6 days (1:4), whenever the confluence reached 80%. For the experiments, cells were cultured in transparent surface 96 well plates at a density of […] with 100 μL/well. After 24 h in culture, cells were treated with the compounds at different concentrations (1, 10, 30 and 60 μM) during 24 h at 37° C. and 5% CO2. In every experiment it was also included a basal variable, a variable with 10 μM tert-butyl hydroquinone (TBHQ) (positive control) and the variables of the study in a final volume of 100 μL. After an incubation of 24 h with the compounds, luciferase activity was measured by bioluminescence using the commercial kit “Luciferase assay system” (Promega E1500). For that, treatments were removed and cells were washed with 100 μL of PBS 0.1 M. After washing, 20 μL of “lysis buffer” reactive was added to each well. 10 minutes later, luminescence was measured using the multi-well reader FluoStar optima (BMG labtech).
Luminescence was measured in arbitrary units and is directly proportional to luciferase quantity in the wells, which is also directly proportional to Nrf2 transcription factor induction by the specific compound at the established concentration. Measurements were made in duplicate and values were normalized to the basal luminescence value, considered as 1.
The results of Nrf2 induction obtained for the compounds 1 to 16 are shown in Table 1 and are expressed as induction, considering 1 the non-treated cells.

[2] = system: Nrf2 transcription factor (Nrf2-ARE); assay: as above; assay type: cell-based; settings: Homo sapiens, 24 h, basal = 1, read-out: Relative Luciferase activity (response versus basal); remark: listed apart in the source

Row | Structure (SMILES) | fold induction at 10 µM ([1]; 10 μM) | fold induction at 30 µM ([1]; 30 μM) | fold induction at 60 µM ([1]; 60 μM) | fold induction at 3 µM ([2]; 3 μM) | fold induction at 6 µM ([2]; 6 μM) | fold induction at 1 µM ([1]; 1 μM)
1 | CCOC(=O)C=Cc1ccccc1 [Ethyl Cinnamate, reference compound] | 1.46 ± 0.1 | 1.4 ± 0.1 | 1.55 ± 0.1 |  |  | 
2 | CC(C)(C)c1cc(O)ccc1O [TBHQ, tert-butyl hydroquinone] |  |  |  | 3.83 ± 0.3 | 6.1 ± 0.1 | 2.19 ± 0.1
